Values of other authors as cited in patent publication US20100291025A1, “INDAZOLE INHIBITORS OF TYROSINE KINASE” (AUSPEX PHARMACEUTICALS, INC., priority 2009, published 2010).

Settings: in vivo

Cc1ccc(Nc2nccc(N(C)c3ccc4c(C)n(C)nc4c3)n2)cc1S(N)(=O)=O [Pazopanib, 5-[[4-[(2,3-Dimethyl-2H-indazol-6-yl)(methyl)amino]pyrimidin-2-yl]amino]-2-methylbenzenesulfonamide]
adverse effects associated with administration: nausea, diarrhea, anorexia, hypertension, fatigue, hair depigmentation, and vomiting
